Assay results reported in ChEMBL document CHEMBL1136853, “Synthesis and SAR of vinca alkaloid analogues” (Bioorg Med Chem Lett, 2009).

Columns and labels:
[1] = tested on: MCF7; assay: Cytotoxicity against human MCF7 cells; type: functional
[2] = tested on: HeLa; assay: Cytotoxicity against human HeLa cells; type: functional

Structure (SMILES)	GI50 [1] [nM]	GI50 [2] [nM]
CC[C@]1(O)C[C@H]2CN(CCc3c([nH]c4ccc(C#N)cc34)[C@@](C(=O)OC)(c3cc4c(cc3OC)N(C)[C@H]3[C@@](O)(C(=O)OC)[C@H](OC(C)=O)[C@]5(CC)CC=CN6CC[C@]43[C@@H]65)C2)C1	3	3
CCSc1ccc2[nH]c3c(c2c1)CCN1C[C@H](C[C@@](O)(CC)C1)C[C@]3(C(=O)OC)c1cc2c(cc1OC)N(C)[C@H]1[C@@](O)(C(=O)OC)[C@H](OC(C)=O)[C@]3(CC)CC=CN4CC[C@]21[C@@H]43	3	2
CC[C@]1(O)C[C@H]2CN(CCc3c([nH]c4ccc(-c5ccccc5)cc34)[C@@](C(=O)OC)(c3cc4c(cc3OC)N(C)[C@H]3[C@@](O)(C(=O)OC)[C@H](OC(C)=O)[C@]5(CC)CC=CN6CC[C@]43[C@@H]65)C2)C1	300	400
C#Cc1ccc2[nH]c3c(c2c1)CCN1C[C@H](C[C@@](O)(CC)C1)C[C@]3(C(=O)OC)c1cc2c(cc1OC)N(C)[C@H]1[C@@](O)(C(=O)OC)[C@H](OC(C)=O)[C@]3(CC)CC=CN4CC[C@]21[C@@H]43	5	20
CC[C@]1(O)C[C@H]2CN(CCc3c([nH]c4ccc(C(=O)OC)cc34)[C@@](C(=O)OC)(c3cc4c(cc3OC)N(C)[C@H]3[C@@](O)(C(=O)OC)[C@H](OC(C)=O)[C@]5(CC)CC=CN6CC[C@]43[C@@H]65)C2)C1	30	20
CC[C@]1(O)C[C@H]2CN(CCc3c([nH]c4ccc(C(=O)O)cc34)[C@@](C(=O)OC)(c3cc4c(cc3OC)N(C)[C@H]3[C@@](O)(C(=O)OC)[C@H](OC(C)=O)[C@]5(CC)CC=CN6CC[C@]43[C@@H]65)C2)C1	> 1000	> 1000
CC[C@]1(O)C[C@H]2CN(CCc3c([nH]c4ccc(C(C)=O)cc34)[C@@](C(=O)OC)(c3cc4c(cc3OC)N(C)[C@H]3[C@@](O)(C(=O)OC)[C@H](OC(C)=O)[C@]5(CC)CC=CN6CC[C@]43[C@@H]65)C2)C1	100	200
CC[C@]1(O)C[C@H]2CN(CCc3c([nH]c4ccc(N)cc34)[C@@](C(=O)OC)(c3cc4c(cc3OC)N(C)[C@H]3[C@@](O)(C(=O)OC)[C@H](OC(C)=O)[C@]5(CC)CC=CN6CC[C@]43[C@@H]65)C2)C1	200	200
CC[C@]1(O)C[C@H]2CN(CCc3c([nH]c4ccc(-c5cccc(F)c5)cc34)[C@@](C(=O)OC)(c3cc4c(cc3OC)N(C)[C@H]3[C@@](O)(C(=O)OC)[C@H](OC(C)=O)[C@]5(CC)CC=CN6CC[C@]43[C@@H]65)C2)C1	300	300
CC[C@]1(O)C[C@H]2CN(CCc3c([nH]c4ccc(SCC(=O)O)cc34)[C@@](C(=O)OC)(c3cc4c(cc3OC)N(C)[C@H]3[C@@](O)(C(=O)OC)[C@H](OC(C)=O)[C@]5(CC)CC=CN6CC[C@]43[C@@H]65)C2)C1	200	50
CC[C@]1(O)C[C@H]2CN(CCc3c([nH]c4ccc(C(N)=O)cc34)[C@@](C(=O)OC)(c3cc4c(cc3OC)N(C)[C@H]3[C@@](O)(C(=O)OC)[C@H](OC(C)=O)[C@]5(CC)CC=CN6CC[C@]43[C@@H]65)C2)C1	> 1000	> 1000
CCc1ccc2[nH]c3c(c2c1)CCN1C[C@H](C[C@@](O)(CC)C1)C[C@]3(C(=O)OC)c1cc2c(cc1OC)N(C)[C@H]1[C@@](O)(C(=O)OC)[C@H](OC(C)=O)[C@]3(CC)CC=CN4CC[C@]21[C@@H]43	0.6	0.3
CC[C@]1(O)C[C@H]2CN(CCc3c([nH]c4ccc(-c5nccs5)cc34)[C@@](C(=O)OC)(c3cc4c(cc3OC)N(C)[C@H]3[C@@](O)(C(=O)OC)[C@H](OC(C)=O)[C@]5(CC)CC=CN6CC[C@]43[C@@H]65)C2)C1	100	200
